Measurements published in US8541588B2, “Sulfonamide derivatives” (Pfizer Limited, priority 2009, dated 2013).

Target: T1, Nav1.7 (or SCN9A) channel; HEK cells stably transfected with hSCN9A (Homo sapiens, UniProt Q15858)
T1 construct: expressed in transfected cells
Assay: Nav1.7 block, PatchXpress 7000 automated whole-cell voltage clamp, estimated IC50 (EIC50)
Assay type: cell-based
Conditions: estimated IC50, PatchXpress platform

[1] = hSCN9A HEK cells, Examples 283-814
[2] = hSCN9A HEK cells, Examples 815-1040
[3] = hSCN9A HEK cells held at V1/2 of inactivation

T1 sequence (Q15858 whole entry): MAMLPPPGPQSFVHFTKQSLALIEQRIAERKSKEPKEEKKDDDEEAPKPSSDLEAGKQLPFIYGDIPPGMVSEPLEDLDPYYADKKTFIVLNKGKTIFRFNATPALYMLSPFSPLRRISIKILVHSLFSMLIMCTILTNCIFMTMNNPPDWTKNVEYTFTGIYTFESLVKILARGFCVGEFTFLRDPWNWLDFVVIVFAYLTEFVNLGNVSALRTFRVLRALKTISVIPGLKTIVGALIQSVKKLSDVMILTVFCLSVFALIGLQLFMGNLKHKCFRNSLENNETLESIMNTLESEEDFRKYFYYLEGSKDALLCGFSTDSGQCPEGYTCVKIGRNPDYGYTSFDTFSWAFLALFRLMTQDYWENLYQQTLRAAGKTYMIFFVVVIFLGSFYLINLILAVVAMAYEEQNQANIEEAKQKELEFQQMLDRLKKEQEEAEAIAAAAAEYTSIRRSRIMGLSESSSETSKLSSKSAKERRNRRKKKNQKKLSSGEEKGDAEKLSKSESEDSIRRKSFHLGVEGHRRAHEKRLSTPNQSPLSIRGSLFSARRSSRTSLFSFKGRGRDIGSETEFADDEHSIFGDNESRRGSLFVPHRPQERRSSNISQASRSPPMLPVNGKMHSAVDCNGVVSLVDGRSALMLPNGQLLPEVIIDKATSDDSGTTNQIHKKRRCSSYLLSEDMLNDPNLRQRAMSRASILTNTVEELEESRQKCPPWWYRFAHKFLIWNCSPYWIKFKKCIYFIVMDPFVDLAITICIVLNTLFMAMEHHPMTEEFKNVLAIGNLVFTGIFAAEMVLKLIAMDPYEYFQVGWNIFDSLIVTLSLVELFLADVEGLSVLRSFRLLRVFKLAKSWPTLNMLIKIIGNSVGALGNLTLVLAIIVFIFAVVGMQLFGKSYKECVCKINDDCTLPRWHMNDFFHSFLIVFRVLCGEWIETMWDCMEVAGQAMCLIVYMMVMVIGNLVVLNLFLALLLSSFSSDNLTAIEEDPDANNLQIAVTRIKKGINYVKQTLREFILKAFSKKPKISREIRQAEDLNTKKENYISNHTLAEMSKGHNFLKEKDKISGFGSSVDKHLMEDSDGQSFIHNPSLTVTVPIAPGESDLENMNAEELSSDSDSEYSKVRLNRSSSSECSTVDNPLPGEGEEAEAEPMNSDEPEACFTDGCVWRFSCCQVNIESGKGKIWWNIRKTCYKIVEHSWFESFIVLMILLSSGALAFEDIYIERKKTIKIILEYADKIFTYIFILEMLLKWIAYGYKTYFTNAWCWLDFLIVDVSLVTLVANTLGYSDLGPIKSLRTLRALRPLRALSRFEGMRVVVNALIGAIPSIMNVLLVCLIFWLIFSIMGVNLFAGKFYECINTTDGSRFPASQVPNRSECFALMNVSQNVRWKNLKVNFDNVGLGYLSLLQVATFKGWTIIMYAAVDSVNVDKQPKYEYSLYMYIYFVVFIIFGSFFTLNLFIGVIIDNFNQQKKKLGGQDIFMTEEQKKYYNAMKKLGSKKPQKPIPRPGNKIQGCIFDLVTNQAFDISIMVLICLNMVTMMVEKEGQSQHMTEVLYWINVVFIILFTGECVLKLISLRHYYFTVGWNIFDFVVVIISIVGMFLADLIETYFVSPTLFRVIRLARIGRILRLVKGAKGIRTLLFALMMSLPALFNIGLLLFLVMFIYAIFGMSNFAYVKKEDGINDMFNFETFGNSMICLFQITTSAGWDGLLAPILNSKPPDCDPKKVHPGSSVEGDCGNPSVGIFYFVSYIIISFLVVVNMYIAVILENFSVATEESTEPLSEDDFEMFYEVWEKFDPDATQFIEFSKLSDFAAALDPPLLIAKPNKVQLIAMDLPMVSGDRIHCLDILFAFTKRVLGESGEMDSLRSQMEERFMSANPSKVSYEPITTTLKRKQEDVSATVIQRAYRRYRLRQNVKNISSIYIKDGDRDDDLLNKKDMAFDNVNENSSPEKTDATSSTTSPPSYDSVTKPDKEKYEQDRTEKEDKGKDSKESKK

Molecule | IC50 [1] | also measured
COCc1cc(C(F)F)nn1-c1cccc(Oc2ccc(S(=O)(=O)Nc3nccs3)cc2C#N)c1 [Example 654, 3-cyano-4-{3-[3-(difluoromethyl)-5-(methoxymethyl)-1H-pyrazol-1-yl]phenoxy}-N-1,3-thiazol-2-ylbenzenesulfonamide] | 1100 nM | –
Cn1nc(C(F)(F)F)cc1-c1ccc(Oc2ccc(S(=O)(=O)Nc3ncc(F)s3)cc2C#N)cc1F [Example 719, 3-cyano-4-{3-fluoro-4-[1-methyl-3-(trifluoromethyl)-1H-pyrazol-5-yl]phenoxy}-N-(5-fluoro-1,3-thiazol-2-yl)benzenesulfonamide] | 160 nM | –
N#Cc1cc(S(=O)(=O)Nc2nccs2)ccc1Oc1ccc(Cl)cc1CN1CCC(F)(F)C1 [Example 360, 4-{4-chloro-2-[(3,3-difluoropyrrolidin-1-yl)methyl]phenoxy}-3-cyano-N-1,3-thiazol-2-ylbenzenesulfonamide] | 330 nM | –
Nc1n[nH]cc1-c1cc(Cl)ccc1Oc1cc(F)c(S(=O)(=O)Nc2ncccn2)cc1Cl [Example 1019, 4-[2-(3-amino-1H-pyrazol-4-yl)-4-chlorophenoxy]-5-chloro-2-fluoro-N-pyrimidin-2-ylbenzenesulfonamide] | – | IC50 [2]: 22 nM
O=S(=O)(Nc1ncns1)c1ccc(Oc2ccc(CC3CC3)cc2)c(Cl)c1 [Example 148, 3-chloro-4-[4-(cyclopropylmethyl)phenoxy]-N-1,2,4-thiadiazol-5-ylbenzenesulfonamide] | – | IC50 [3]: 2530 nM
CSc1nc(NS(=O)(=O)c2ccc(Oc3ccc(Cl)cc3-c3ccnn3C)c(C#N)c2)ns1 [Example 893, 4-[4-chloro-2-(1-methyl-1H-pyrazol-5-yl)phenoxy]-3-cyano-N-[5-(methylthio)-1,2,4-thiadiazol-3-yl]benzenesulfonamide] | – | IC50 [2]: 3800 nM
O=S(=O)(Nc1nccs1)c1ccc(Oc2cccc(Oc3ccccc3)c2)c(F)c1 [Example 126, 3-fluoro-4-(3-phenoxyphenoxy)-N-1,3-thiazol-2-ylbenzenesulfonamide] | – | IC50 [3]: 11500 nM
N#Cc1cc(S(=O)(=O)Nc2ncns2)ccc1Oc1ccc(Cl)cc1-c1ccnc(NC2CCC2)c1 [Example 902, 4-{4-chloro-2-[2-(cyclobutylamino)pyridin-4-yl]phenoxy}-3-cyano-N-1,2,4-thiadiazol-5-ylbenzenesulfonamide] | – | IC50 [2]: 2.3 nM
CCn1nc(C(F)(F)F)cc1-c1ccc(Oc2ccc(S(=O)(=O)Nc3ncns3)cc2C#N)cc1 [Example 500, 3-cyano-4-{4-[1-ethyl-3-(trifluoromethyl)-1H-pyrazol-5-yl]phenoxy}-N-1,2,4-thiadiazol-5-ylbenzenesulfonamide] | 88 nM | –
COc1cc(Oc2ccc(S(=O)(=O)Nc3ccc(F)cn3)cc2C#N)ccc1-n1cnc(C)c1 [Example 575, 3-cyano-N-(5-fluoropyridin-2-yl)-4-[3-methoxy-4-(4-methyl-1H-imidazol-1-yl)phenoxy]benzenesulfonamide] | >30000 nM | –
4-[2-(2-aminopyridin-4-yl)-4-(trifluoromethoxy)phenoxy]-2,5-difluoro-N-1,2,4-thiadiazol-5-ylbenzenesulfonamide [Example 552] | 2.4 nM | –
N#Cc1cc(S(=O)(=O)Nc2ncns2)ccc1Oc1ccc(Cl)cc1-c1ccnn1C1CNC1 [Example 728, 4-[2-(1-azetidin-3-yl-1H-pyrazol-5-yl)-4-chlorophenoxy]-3-cyano-N-1,2,4-thiadiazol-5-ylbenzenesulfonamide] | 4.8 nM | –
O=S(=O)(Nc1ccncn1)c1ccc(Oc2ccc(Cl)cc2-c2ccn[nH]2)c(Cl)c1 [Example 746, 3-chloro-4-[4-chloro-2-(1H-pyrazol-5-yl)phenoxy]-N-pyrimidin-4-ylbenzenesulfonamide] | 95 nM | –
Cn1nccc1-c1ccc(Cl)cc1Oc1ccc(S(=O)(=O)Nc2nccs2)cc1C#N [Example 544, 4-[5-chloro-2-(1-methyl-1H-pyrazol-5-yl)phenoxy]-3-cyano-N-1,3-thiazol-2-ylbenzenesulfonamide] | 22 nM | –
O=S(=O)(Nc1nncs1)c1ccc(Oc2ccc(OC(F)(F)F)cc2-c2ccnnc2)c(Cl)c1 [Example 942, 3-chloro-4-[2-pyridazin-4-yl-4-(trifluoromethoxy)phenoxy]-N-1,3,4-thiadiazol-2-ylbenzenesulfonamide] | – | IC50 [2]: 35 nM
Cn1ccnc1-c1cc(Cl)ccc1Oc1ccc(S(=O)(=O)Nc2nccs2)cc1C#N [Example 651, 4-[4-chloro-2-(1-methyl-1H-imidazol-2-yl)phenoxy]-3-cyano-N-1,3-thiazol-2-ylbenzenesulfonamide] | 1000 nM | –
Nc1ccnc(-c2cc(Cl)ccc2Oc2cc(F)c(S(=O)(=O)Nc3ncns3)cc2Cl)c1 [Example 554, 4-[2-(4-aminopyridin-2-yl)-4-chlorophenoxy]-5-chloro-2-fluoro-N-1,2,4-thiadiazol-5-ylbenzenesulfonamide] | 120 nM | –
O=S(=O)(Nc1cscn1)c1cc(Cl)c(Oc2cc(C(F)(F)F)ccc2-c2cccc(CO)c2)cc1F [Example 663, 5-chloro-2-fluoro-4-{[3′-(hydroxymethyl)-4-(trifluoromethyl)biphenyl-2-yl]oxy}-N-1,3-thiazol-4-ylbenzenesulfonamide] | 130 nM | –
COCc1cccc(-c2cc(F)ccc2Oc2ccc(S(=O)(=O)Nc3nccs3)cc2C#N)c1 [Example 160, 3-cyano-4-{[5-fluoro-3′-(methoxymethyl)biphenyl-2-yl]oxy}-N-1,3-thiazol-2-ylbenzenesulfonamide] | – | IC50 [3]: 60 nM

Further lines, with some results ahead:

IC50 [1] | Molecule | also measured
22 nM | O=S(=O)(Nc1ncc(F)s1)c1cc(F)c(Oc2ccc(Cl)cc2-c2cn[nH]c2)cc1F [Example 683, 4-[4-chloro-2-(1H-pyrazol-4-yl)phenoxy]-2,5-difluoro-N-(5-fluoro-1,3-thiazol-2-yl)benzenesulfonamide] | –
12 nM | O=S(=O)(Nc1nccs1)c1cc(F)c(Oc2ccc(OC(F)(F)F)cc2-c2cn[nH]c2)cc1F [Example 677, 2,5-difluoro-4-[2-(1H-pyrazol-4-yl)-4-(trifluoromethoxy)phenoxy]-N-1,3-thiazol-2-ylbenzenesulfonamide] | –
2.3 nM | Nc1cc(-c2cc(C(F)(F)F)ccc2Oc2cc(F)c(S(=O)(=O)Nc3ncns3)cc2F)ccn1 [Example 556, 4-[2-(2-aminopyridin-4-yl)-4-(trifluoromethyl)phenoxy]-2,5-difluoro-N-1,2,4-thiadiazol-5-ylbenzenesulfonamide] | –
710 nM | Cn1nc(C(F)(F)F)cc1-c1ccc(Oc2cc(F)c(S(=O)(=O)Nc3ncc(F)s3)cc2F)cc1 [Example 682, 2,5-difluoro-N-(5-fluoro-1,3-thiazol-2-yl)-4-{4-[1-methyl-3-(trifluoromethyl)-1H-pyrazol-5-yl]phenoxy}benzenesulfonamide] | –
22 nM | N#Cc1cc(S(=O)(=O)Nc2ncns2)ccc1Oc1ccc(OC(F)(F)F)cc1-c1cn[nH]c1 [Example 502, 3-cyano-4-[2-(1H-pyrazol-4-yl)-4-(trifluoromethoxy)phenoxy]-N-1,2,4-thiadiazol-5-ylbenzenesulfonamide] | –
330 nM | O=S(=O)(Nc1nccs1)c1ccc(Oc2ccc(F)cc2-c2cn[nH]c2)c(F)c1 [Example 686, 3-fluoro-4-[4-fluoro-2-(1H-pyrazol-4-yl)phenoxy]-N-1,3-thiazol-2-ylbenzenesulfonamide] | –
11 nM | N#Cc1cc(S(=O)(=O)Nc2nccs2)ccc1Oc1ccc(OC(F)(F)F)cc1-c1cn[nH]c1 [Example 704, 3-cyano-4-[2-(1H-pyrazol-4-yl)-4-(trifluoromethoxy)phenoxy]-N-1,3-thiazol-2-ylbenzenesulfonamide] | –
